# Reference: ChEMBL document CHEMBL4177712, “AMP and adenosine are both ligands for adenosine 2B receptor signaling” (Bioorg Med Chem Lett, 2018)
# Calls of active or inactive are those of the source. No cut-off for these calls is given here.
# Experiments:
# [1] = target: T1, Adenosine receptor A2b (Homo sapiens) (UniProt P29275); assay: Agonist activity at human A2B receptor expressed in CHO cells assessed as induction of calcium mobilization by Fluo-4 dye based fluorescence assay; assay type: functional, cell-based
# T1 sequence (whole entry): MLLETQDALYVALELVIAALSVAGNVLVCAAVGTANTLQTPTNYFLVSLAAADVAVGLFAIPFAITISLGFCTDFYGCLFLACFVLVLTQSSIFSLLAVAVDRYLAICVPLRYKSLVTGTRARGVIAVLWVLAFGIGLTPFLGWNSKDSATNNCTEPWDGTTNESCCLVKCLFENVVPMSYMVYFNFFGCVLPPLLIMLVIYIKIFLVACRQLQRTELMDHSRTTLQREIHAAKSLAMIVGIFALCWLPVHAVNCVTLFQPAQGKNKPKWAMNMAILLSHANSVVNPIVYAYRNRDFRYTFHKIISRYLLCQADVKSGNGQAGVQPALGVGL
# [2] = target: T1, Adenosine receptor A2b (Homo sapiens); assay: Agonist activity at human A2B receptor expressed in CHOK1 cells expressing ADORA2B-CRE-bla assessed as induction of cAMP accumulation by FRET assay; assay type: functional, cell-based
Structure (SMILES),Activity [1],Activity [2]
Nc1ncnc2c1ncn2[C@@H]1O[C@H](CO)[C@@H](O)[C@H]1O,Active,–
Nc1ncnc2c1ncn2[C@H]1O[C@H](COP(O)(O)=S)[C@@H](O)[C@H]1O,Dose-dependent effect,inactive
